For 29 compounds, EC50 results are on record in patent publication US11078170B2 (Assembly Biosciences, Inc., priority 2017, dated 2021).

In this assay the test system is HBV viral production from HepAD38 cells. The experiment in a line: Activity of test compounds on viral production from HepAD38 cells (viral load by qPCR of HBV core sequence in supernatant). It is filed as cell-based. The following applies: Hepatitis B virus, 120 h, 5 days incubation, HBV DNA in supernatant by qPCR, top concentration 10 μM, read-out: Viral Load EC50 Activity range. The essentials:
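EC50 and CC50 come from four-parameter fits of supernatant viral load and CellTiter-Glo viability, respectively. Viral load was measured by core-region TaqMan qPCR against HBV DNA standards and compared with DMSO controls. Tet-free HepAD38 cells (50,000/well, 2% FBS) were exposed to compound, highest 10 μM, for 5 days at 37° C.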

Usually EC50 stands for the concentration at which the effect is half-maximal. With `[2H]C1[C@]([2H])(c2ccc(Br)s2)NS(=O)(=O)N(C)[C@]1([2H])C(=O)Nc1ccc(F)c(Cl)c1` (stereo in doubt) [HBV-CSU-371-ISO-I, Cis-5-(5-Bromothiophen-2-yl)-N-(3-chloro-4-fluorophenyl)-2-methyl-1,2,6-thiadiazinane-3,4,5-d3-3-carboxamide 1,1-dioxide], the EC50 was less than 1000 nM. The same measure for `CN1[C@H](C(=O)Nc2ccc(F)c(Cl)c2)C[C@H](c2cc(-c3cncn3C)cs2)NS1(=O)=O` [HBV-CSU-285-ISO-I, Cis-N-(3-Chloro-4-fluorophenyl)-2-methyl-5-(4-(1-methyl-1H-imidazol-5-yl)thiophen-2-yl)-1,2,6-thiadiazinane-3-carboxamide 1,1-dioxide]: less than 1000 nM; for `CN1[C@H](C(=O)Nc2ccc(F)c(Cl)c2)C[C@H](c2cc(-c3ccccn3)cs2)NS1(=O)=O` [HBV-CSU-168-ISO-II, Cis-N-(3-chloro-4-fluorophenyl)-2-methyl-5-(4-(pyridin-2-yl)thiophen-2-yl)-1,2,6-thiadiazinane-3-carboxamide 1,1-dioxide]: less than 1000 nM.

Consider `CN1[C@H](C(=O)Nc2ccc(F)c(Cl)c2)C[C@H](c2cc(-c3cccnc3)cs2)NS1(=O)=O` [HBV-CSU-167-ISO-I, Cis-N-(3-chloro-4-fluorophenyl)-2-methyl-5-(4-(pyridin-3-yl)thiophen-2-yl)-1,2,6-thiadiazinane-3-carboxamide 1,1-dioxide], for which the EC50 is less than 1000 nM. The same measure for `CN1[C@@H](C(=O)Nc2ccc(F)c(Cl)c2)C[C@@H](c2cc(-c3ccc(F)cc3)cs2)NS1(=O)=O` [HBV-CSU-239-ISO-II]: 1000 to 5000 nM. The figure for `CN1[C@H](C(=O)Nc2ccc(F)c(C#N)c2)C[C@H](c2cccs2)NS1(=O)=O` [HBV-CSU-045-ISO-I, Cis-N-(3-cyano-4-fluorophenyl)-2-methyl-5-(thiophen-2-yl)-1,2,6-thiadiazinane-3-carboxamide 1,1-dioxide] is less than 1000 nM.

With `COc1ccc(-c2cnc(C3CC(C(=O)Nc4ccc(F)c(Cl)c4)N(C)S(=O)(=O)N3)s2)cc1` (racemic) [HBV-CSU-250, Cis-N-(3-Chloro-4-fluorophenyl)-5-(5-(4-methoxyphenyl)thiazol-2-yl)-2-methyl-1,2,6-thiadiazinane-3-carboxamide 1,1-dioxide], the EC50 was less than 1000 nM. The figure for `CN1[C@@H](C(=O)Nc2ccc(F)c(Cl)c2)C[C@@H](c2ccc(Cc3ccccc3)s2)NS1(=O)=O` [HBV-CSU-117-ISO-II, Cis-(5-benzylthiophen-2-yl)-N-(3-chloro-4-fluorophenyl)-2-methyl-1,2,6-thiadiazinane-3-carboxamide 1,1-dioxide] is 1000 to 5000 nM.

For `CN1[C@H](C(=O)Nc2ccc(F)c(Cl)c2)C[C@H](c2ccc(-c3nncn3C)s2)NS1(=O)=O` [HBV-CSU-324-ISO-I, Cis-N-(3-Chloro-4-fluorophenyl)-2-methyl-5-(5-(4-methyl-4H-1,2,4-triazol-3-yl)thiophen-2-yl)-1,2,6-thiadiazinane-3-carboxamide 1,1-dioxide], the concentration for a half-maximal effect (EC50) was less than 1000 nM. The figure for `CN1[C@@H](C(=O)Nc2ccc(F)c(Cl)c2)C[C@@H](c2ncc(-c3ccccn3)s2)NS1(=O)=O` [HBV-CSU-176-ISO-II, Cis-N-(3-chloro-4-fluorophenyl)-2-methyl-5-(5-(pyridin-2-yl)thiazol-2-yl)-1,2,6-thiadiazinane-3-carboxamide 1,1-dioxide] is more than 5000 nM. Take `Cc1nn(C)c(C)c1-c1csc([C@@H]2C[C@H](C(=O)Nc3ccc(F)c(Cl)c3)N(C)S(=O)(=O)N2)c1` (relative stereo) [HBV-CSU-317-ISO-II, Cis-N-(3-chloro-4-fluorophenyl)-2-methyl-5-(4-(1,3,5-trimethyl-1H-pyrazol-4-yl)thiophen-2-yl)-1,2,6-thiadiazinane-3-carboxamide 1,1-dioxide]: the EC50 was less than 1000 nM.

With `C#CCCN1[C@H](C(=O)Nc2ccc(F)c(Cl)c2)C[C@H](c2nccs2)NS1(=O)=O` [HBV-CSU-090-ISO-I, Cis-2-(But-3-yn-1-yl)-N-(3-chloro-4-fluorophenyl)-5-(thiazol-2-yl)-1,2,6-thiadiazinane-3-carboxamide 1,1-dioxide], the EC50 was less than 1000 nM.

Regarding `O=C(Nc1ccc(F)c(Cl)c1)[C@@H]1C[C@H](c2nccs2)NS(=O)(=O)N1CCCN1CCCC1` [HBV-CSU-102-ISO-II, Cis-N-(3-Chloro-4-fluorophenyl)-2-(3-(pyrrolidin-1-yl)propyl)-5-(thiazol-2-yl)-1,2,6-thiadiazinane-3-carboxamide 1,1-dioxide], the EC50 was more than 5000 nM. On to `CN1[C@H](C(=O)Nc2ccc(F)c(Cl)c2)C[C@H](c2ccc(F)cn2)NS1(=O)=O` [HBV-CSU-032-ISO-I, Cis-N-(3-Chloro-4-fluorophenyl)-5-(5-fluoropyridin-2-yl)-2-methyl-1,2,6-thiadiazinane-3-carboxamide 1,1-dioxide], for which the EC50 was less than 1000 nM. The figure for `O=C(Nc1ccc(F)c(Cl)c1)[C@@H]1C[C@H](c2nccs2)NS(=O)(=O)N1CCCN1CCOCC1` [HBV-CSU-103-ISO-II] is 1000 to 5000 nM. The same measure for `CC(C)n1cc(-c2csc([C@@H]3C[C@H](C(=O)Nc4ccc(F)c(Cl)c4)N(C)S(=O)(=O)N3)c2)cn1` [HBV-CSU-295-ISO-II, Cis-N-(3-chloro-4-fluorophenyl)-5-(4-(1-isopropyl-1H-pyrazol-4-yl)thiophen-2-yl)-2-methyl-1,2,6-thiadiazinane-3-carboxamide 1,1-dioxide]: 1000 to 5000 nM; for `CN1C(C(=O)Nc2ccc(F)c(Cl)c2)CC(c2cc(Br)c(Cl)s2)NS1(=O)=O` (stereo not drawn) [HBV-CSU-330, Cis-5-(4-bromo-5-chlorothiophen-2-yl)-N-(3-chloro-4-fluorophenyl)-2-methyl-1,2,6-thiadiazinane-3-carboxamide 1,1-dioxide]: less than 1000 nM; for `CN1[C@H](C(=O)Nc2ccc(F)c(Cl)c2)C[C@H](c2cccc(F)c2)NS1(=O)=O` (relative stereo) [HBV-CSU-231-ISO-I, Cis-N-(3-Chloro-4-fluorophenyl)-5-(3-fluorophenyl)-2-methyl-1,2,6-thiadiazinane-3-carboxamide 1,1-dioxide]: less than 1000 nM. The figure for `CN1[C@H](C(=O)Nc2ccc(F)c(Cl)c2)C[C@H](c2ccc(C(=O)O)cc2)NS1(=O)=O` [HBV-CSU-218-ISO-I, Cis-4-(5-((3-Chloro-4-fluorophenyl)carbamoyl)-6-methyl-1,1-dioxido-1,2,6-thiadiazinan-3-yl)benzoic acid] is more than 5000 nM; for `CN1[C@H](C(=O)Nc2ccc(F)c(Cl)c2)C[C@H](c2cc(-c3cnn(CCO)c3)cs2)NS1(=O)=O` [HBV-CSU-296-ISO-I, Cis-N-(3-chloro-4-fluorophenyl)-5-(4-(1-(2-hydroxyethyl)-1H-pyrazol-4-yl)thiophen-2-yl)-2-methyl-1,2,6-thiadiazinane-3-carboxamide 1,1-dioxide] it is less than 1000 nM. With `CN1[C@H](C(=O)Nc2ccc(F)c(Br)c2)C[C@H](c2ncc(Br)s2)NS1(=O)=O` [HBV-CSU-383, (3S,5R)—N-(3-bromo-4-fluorophenyl)-5-(5-bromothiazol-2-yl)-2-methyl-1,2,6-thiadiazinane-3-carboxamide 1,1-dioxide], the EC50 was less than 1000 nM.

With `CN1[C@H](C(=O)Nc2ccc(F)c(Cl)c2)C[C@H](c2cc(-c3cncnc3)cs2)NS1(=O)=O` [HBV-CSU-290-ISO-I, Cis-N-(3-chloro-4-fluorophenyl)-2-methyl-5-(4-(pyrimidin-5-yl)thiophen-2-yl)-1,2,6-thiadiazinane-3-carboxamide 1,1-dioxide], the EC50 was less than 1000 nM. Take `CN1C(C(=O)Nc2ccc(F)c(Cl)c2)CC(c2ccc(-c3ccc(NS(C)(=O)=O)cc3)s2)NS1(=O)=O` (racemic) [HBV-CSU-163, Cis-N-(3-chloro-4-fluorophenyl)-2-methyl-5-(5-(4-(methylsulfonamido)phenyl)thiophen-2-yl)-1,2,6-thiadiazinane-3-carboxamide 1,1-dioxide]: the 50% effective concentration (EC50) is less than 1000 nM. `CN1C(C(=O)Nc2ccc(F)c(Cl)c2)CC(c2ncc(-c3ccccn3)s2)NS1(=O)=O` (racemic) [HBV-CSU-176, Cis-N-(3-chloro-4-fluorophenyl)-2-methyl-5-(5-(pyridin-2-yl)thiazol-2-yl)-1,2,6-thiadiazinane-3-carboxamide 1,1-dioxide]: the EC50 was less than 1000 nM. Turning to `CN1C(C(=O)Nc2ccc(F)c(Cl)c2)CC(c2cc(Br)cs2)NS1(=O)=O` (centres unmarked) [HBV-CSU-146, 5-(4-Bromothiophen-2-yl)-N-(3-chloro-4-fluorophenyl)-2-methyl-1,2,6-thiadiazinane-3-carboxamide 1,1-dioxide], the EC50 was less than 1000 nM. The figure for `CN1[C@H](C(=O)Nc2ccc(F)c(Cl)c2)C[C@H](c2ncc(-c3cccs3)s2)NS1(=O)=O` [HBV-CSU-178-ISO-I, Cis-N-(3-Chloro-4-fluorophenyl)-2-methyl-5-(5-(thiophen-2-yl)thiazol-2-yl)-1,2,6-thiadiazinane-3-carboxamide 1,1-dioxide] is less than 1000 nM; for `CN1[C@@H](C(=O)Nc2ccc(F)c(Cl)c2)C[C@@H](c2ccsn2)NS1(=O)=O` (relative stereo) [HBV-CSU-056-ISO-II, Cis-N-(3-chloro-4-fluorophenyl)-5-(isothiazol-3-yl)-2-methyl-1,2,6-thiadiazinane-3-carboxamide 1,1-dioxide] it is more than 5000 nM; for `Cc1c(-c2csc([C@@H]3C[C@H](C(=O)Nc4ccc(F)c(Cl)c4)N(C)S(=O)(=O)N3)c2)cnn1C` (relative stereo) [HBV-CSU-315-ISO-II, Cis-N-(3-chloro-4-fluorophenyl)-5-(4-(1,5-dimethyl-1H-pyrazol-4-yl)thiophen-2-yl)-2-methyl-1,2,6-thiadiazinane-3-carboxamide 1,1-dioxide] it is less than 1000 nM. On to `CN1[C@H](C(=O)Nc2ccc(F)c(Cl)c2)C[C@H](c2ccccc2)NS1(=O)=O` [HBV-CSU-113-ISO-I, Cis-N-(3-chloro-4-fluorophenyl)-2-methyl-5-phenyl-1,2,6-thiadiazinane-3-carboxamide 1,1-dioxide], for which the EC50 was less than 1000 nM.
